The values that follow come from article PMC8286840, “Identifying SARS-CoV-2 antiviral compounds by screening for small molecule inhibitors of Nsp3 papain-like protease” (Biochemical Journal, 2021).

Assay [1] deals with T1, SARS-CoV-2 PLpro (nsp3 1564–1878) (Severe acute respiratory syndrome coronavirus 2, UniProt P0DTD1). The assay is described as follows: biochemical. Further details: FRET-quenched peptide (Pro3) cleavage by PLpro, 10 min pre-incubation, slope over 20 min, normalised to no-compound control. Conditions: low concentration screen, read-out: % of control remaining.
For assay [2], the target named is T1, SARS-CoV-2 PLpro (nsp3 1564–1878). Briefly: biochemical. Further details: FRET-quenched peptide (Pro3) cleavage by PLpro, 10 min pre-incubation, slope over 20 min, normalised to no-compound control. Conditions: high concentration screen, read-out: % of control remaining.

Structures can show the parent of a compound that is named as a salt. Where two headings read alike, the source gives them in different places.

Consider `O=C(O)COc1cccc(CN(Cc2ccc(-n3cccn3)cc2)S(=O)(=O)c2cccnc2)c1` [Taprenepag], for which the remaining activity at 1.25 µM in assay [1] (Well no.=6182) stood at 96%. Further, the remaining activity at 3.75 µM in assay [2] (Well no.=6182) was determined as 97.6%.
In the case of `C[C@H](NC(=O)C(C)(C)Oc1ccc(C(F)(F)F)cn1)[C@@H](Cc1ccc(Cl)cc1)c1cccc(C#N)c1` [Taranabant], the remaining activity at 1.25 µM in assay [1] (Well no.=7147) turned out to be 103%. Also, the remaining activity at 3.75 µM in assay [2] (Well no.=7147) was determined as 87.5%.
For `COc1cc2c(cc1OC)CN(CCc1ccc(NC(=O)c3cc(OC)c(OC)cc3NC(=O)c3cnc4ccccc4c3)cc1)CC2` [Tariquidar], the remaining activity at 1.25 µM in assay [1] (Well no.=4796) came out at 98.7%. Also, the remaining activity at 3.75 µM in assay [2] (Well no.=4796) is 92.7%.
As to `CCC(=O)NC[C@@H]1C[C@H]1c1cccc2c1CCO2` [Tasimelteon], in assay [1] (Well no.=6230), the remaining activity at 1.25 µM is 97.6%. For the same compound, in assay [2] (Well no.=6230), the remaining activity at 3.75 µM amounted to 99%.
For `C[C@H]1CCN(C(=O)CC#N)C[C@H]1N(C)c1ncnc2[nH]ccc12` [Tasocitinib], the remaining activity at 1.25 µM in assay [1] (Well no.=2789) was 103%. Further, the remaining activity at 3.75 µM in assay [2] (Well no.=2789) stood at 98.6%.
Regarding `NCCS(=O)(=O)O` [Taurine], the results for the remaining activity at 1.25 µM in assay [1] (Well no.=1233) and in assay [1] (Well no.=6299) were 102% and 98.3%, respectively. The remaining activity at 3.75 µM in assay [2] (Well no.=1233) was found to be 104%; in assay [2] (Well no.=6299), 96.7%.
Regarding `C[C@H](CCC(=O)NCCS(=O)(=O)O)[C@H]1CC[C@H]2[C@@H]3[C@H](O)C[C@@H]4C[C@H](O)CC[C@]4(C)[C@H]3CC[C@]12C` [Taurochenodeoxycholic acid], the remaining activity at 1.25 µM in assay [1] (Well no.=6294) came out at 101%. Besides, the remaining activity at 3.75 µM in assay [2] (Well no.=6294) came out at 101%; in assay [2] (Well no.=6493) it was 103%.
As to `O=S1(=O)CCN(CN2CCS(=O)(=O)NC2)CN1` [Taurolidine], the remaining activity at 1.25 µM in assay [1] (Well no.=5628) was found to be 103%. Further, the remaining activity at 3.75 µM in assay [2] (Well no.=5628) was 109%.
In the case of `C[C@H](CCC(=O)NCCS(=O)(=O)O)[C@H]1CC[C@H]2[C@@H]3[C@@H](O)C[C@@H]4C[C@H](O)CC[C@]4(C)[C@H]3CC[C@]12C` [Tauroursodeoxycholate (Sodium)], the remaining activity at 1.25 µM in assay [1] (Well no.=6310) was found to be 102%. The remaining activity at 3.75 µM in assay [2] (Well no.=6310) came to 104%.
Turning to `C[C@H](CCC(=O)NCCS(=O)(=O)O)[C@H]1CC[C@H]2[C@@H]3[C@@H](O)C[C@@H]4C[C@H](O)CC[C@]4(C)[C@H]3CC[C@]12C` [Tauroursodeoxycholate dihydrate], the remaining activity at 1.25 µM in assay [1] (Well no.=7112) is 95.4%. Also, in assay [2] (Well no.=7112), the remaining activity at 3.75 µM was 93.5%.
In the case of `C[C@H](CCC(=O)NCCS(=O)(=O)O)[C@H]1CC[C@H]2[C@@H]3[C@@H](O)C[C@@H]4C[C@H](O)CC[C@]4(C)[C@H]3CC[C@]12C` [Tauroursodeoxycholic Acid (TUDCA)], the remaining activity at 1.25 µM in assay [1] (Well no.=8200) was determined as 109%. In assay [2] (Well no.=8200), the remaining activity at 3.75 µM is 107%.
For the compound `C[C@]1(Cn2ccnn2)[C@H](C(=O)O)N2C(=O)C[C@H]2S1(=O)=O` [Tazobactam], the remaining activity at 1.25 µM in assay [1] (Well no.=7934) was determined as 97.1%. In addition, the remaining activity at 3.75 µM in assay [2] (Well no.=7934) was 103%.
In the case of `OC[C@H]1O[C@@H](n2cnc3c(N[C@@H]4CCOC4)ncnc32)[C@H](O)[C@@H]1O` [Tecadenoson], the remaining activity at 1.25 µM in assay [1] (Well no.=7966) worked out at 96.9%; in assay [1] (Well no.=8315) it was 94.2%. Besides, the remaining activity at 3.75 µM is 96.1% in assay [2] (Well no.=7966) and 94.4% in assay [2] (Well no.=8315).
`CCCCCNC(=N)N/N=C/c1c[nH]c2ccc(OC)cc12` [Tegaserod (maleate)]: the remaining activity at 1.25 µM in assay [1] (Well no.=6615) turned out to be 103%. Moreover, the remaining activity at 3.75 µM in assay [2] (Well no.=6615) worked out at 104%.
`O=C(CNC(=O)c1cccc(C(F)(F)F)c1)N[C@@H]1CCN(Cc2ccc(Cl)cc2)C1` [Teijin compound 1 hydrochloride]: the remaining activity at 1.25 µM in assay [1] (Well no.=5505) came out at 104%. The remaining activity at 3.75 µM in assay [2] (Well no.=5505) was determined as 112%.
Turning to `CNC(=O)c1cc(COc2nnc(Nc3ccc(Cl)cc3)c3ccoc23)ccn1` [Telatinib (BAY 57-9352)], the remaining activity at 1.25 µM in assay [1] (Well no.=4858) is 99.7%. Moreover, the remaining activity at 3.75 µM in assay [2] (Well no.=4858) came to 104%.
With `Cc1cn([C@@H]2C[C@@H](O)[C@H](CO)O2)c(=O)[nH]c1=O` [Telbivudine], the remaining activity at 1.25 µM in assay [1] (Well no.=8380) came to 92.4%; in assay [1] (Well no.=8839), 98.6%. The values for the remaining activity at 3.75 µM in assay [2] (Well no.=8380) and in assay [2] (Well no.=8839) were 92.3% and 96.3%, respectively.
Turning to `Cc1scc2c1N(C(=O)CN1CCN(C)CC1)c1ccccc1NC2=O` [Telenzepine dihydrochloride], the remaining activity at 1.25 µM in assay [1] (Well no.=1186) was 95.7%. Besides, in assay [2] (Well no.=1186), the remaining activity at 3.75 µM worked out at 97.7%.
Take `CCCc1nc2c(C)cc(-c3nc4ccccc4n3C)cc2n1Cc1ccc(-c2ccccc2C(=O)O)cc1` [Telmisartan]: the remaining activity at 1.25 µM in assay [1] (Well no.=2297) was 95.4%; in assay [1] (Well no.=6283), 105%. For the same compound, the values for the remaining activity at 3.75 µM in assay [2] (Well no.=2297) and in assay [2] (Well no.=6283) were 94.3% and 108%, respectively.
On to `CCOC(=O)[C@@H](N)Cc1ccc(-c2cc(O[C@H](c3ccc(Cl)cc3-n3ccc(C)n3)C(F)(F)F)nc(N)n2)cc1` [Telotristat Etiprate (LX 1606 Hippurate)], for which the remaining activity at 1.25 µM in assay [1] (Well no.=8288) came to 92.6%. Further, the remaining activity at 3.75 µM in assay [2] (Well no.=8288) came to 92.1%.
On to `CCOC(=O)[C@H](CCc1ccccc1)N[C@H]1CS[C@H](c2cccs2)CN(CC(=O)O)C1=O` [Temocapril (hydrochloride)], for which the remaining activity at 1.25 µM in assay [1] (Well no.=8218) came out at 103%. Besides, in assay [2] (Well no.=8218), the remaining activity at 3.75 µM amounted to 99.9%.
On to `CCOC(=O)[C@H](CCc1ccccc1)N[C@H]1CS[C@H](c2cccs2)CN(CC(=O)O)C1=O` [Temocapril HCl], for which the remaining activity at 1.25 µM in assay [1] (Well no.=4764) amounted to 106%. For the same compound, in assay [2] (Well no.=4764), the remaining activity at 3.75 µM worked out at 109%.
With `Cn1nnc2c(C(N)=O)ncn2c1=O` [Temozolomide], the remaining activity at 1.25 µM in assay [1] (Well no.=1952) was 95%. Moreover, in assay [2] (Well no.=1952), the remaining activity at 3.75 µM is 99.1%.
`COc1cnc(-n2cnc(C)n2)c2[nH]cc(C(=O)C(=O)N3CCN(C(=O)c4ccccc4)CC3)c12` [Temsavir]: the remaining activity at 1.25 µM in assay [1] (Well no.=7886) turned out to be 97.2%. Also, in assay [2] (Well no.=7886), the remaining activity at 3.75 µM was 98%.
Regarding `CO[C@H]1C[C@@H]2CC[C@@H](C)[C@@](O)(O2)C(=O)C(=O)N2CCCC[C@H]2C(=O)O[C@H]([C@H](C)C[C@@H]2CC[C@@H](OC(=O)C(C)(CO)CO)[C@H](OC)C2)CC(=O)[C@H](C)/C=C(\C)[C@@H](O)[C@@H](OC)C(=O)[C@H](C)C[C@H](C)/C=C/C=C/C=C/1C` [Temsirolimus], the remaining activity at 1.25 µM in assay [1] (Well no.=8412) amounted to 95.2%. Further, in assay [2] (Well no.=8412), the remaining activity at 3.75 µM worked out at 91.8%.
In the case of `COc1ccc2[nH]c([S+]([O-])Cc3ncc(C)c(OC)c3C)nc2n1` (stereo not drawn) [Tenatoprazole], in assay [1] (Well no.=1950), the remaining activity at 1.25 µM is 98.5%. Further, the remaining activity at 3.75 µM in assay [2] (Well no.=1950) is 95.8%.
`Cc1cc(N2CCN([C@@H]3CN[C@H](C(=O)N4CCSC4)C3)CC2)n(-c2ccccc2)n1` [Teneligliptin hydrobromide]: in assay [1] (Well no.=8110), the remaining activity at 1.25 µM was determined as 107%. Besides, the remaining activity at 3.75 µM in assay [2] (Well no.=8110) turned out to be 106%.
